# Measured values taken from ChEMBL document CHEMBL4325890, “Novel tyrosyl-DNA phosphodiesterase 1 inhibitors enhance the therapeutic impact of topoteсan on in vivo tumor models” (Eur J Med Chem, 2019).
# Columns and labels:
# [1] = molecular target: T1, Tyrosyl-DNA phosphodiesterase 1 (Homo sapiens, UniProt Q9NUW8); assay: Inhibition of Tdp1 (unknown origin)
# [2] = molecular target: T1, Tyrosyl-DNA phosphodiesterase 1; assay: Binding affinity to recombinant human Tdp1 (149 to 608 residues) expressed in Escherichia coli BL21 (DE3) by tryptophan fluorescence quenching assay
# [3] = Stability of the compound assessed as imine hydrolysis at pH 1 HCl solution incubated for 24 hrs under shaking condition; assay type: physicochemical; conditions: buffer, pH 1, 24 h
# [4] = molecular target: T1, Tyrosyl-DNA phosphodiesterase 1
# [5] = Toxicity in C57BL/6 mouse implanted with C57BL mouse LLC cells assessed as liver index at 100 mg/kg, ig administered as single dose measured 17 days post-transplantation in presence of topotecan (reference value: 5.8 +/- 0.38%); assay type: organism-based; conditions: in vivo, po, 408 h
# [6] = Cytotoxicity against mouse LLTC cells after 3 days by [3H]-thymidine incorporation assay; assay type: cell-based
# [7] = system: Lewis lung carcinoma cell line; assay: Cytotoxicity against C57BL mouse LLC cells implanted in C57BL/6 mouse assessed as tumor weight at 100 mg/kg, ig administered as single dose measured 17 days post transplantation (reference value: 3.3 +/- 0.28 g); assay type: organism-based; conditions: in vivo, po, 408 h
# [8] = Acute toxicity in ig dosed specific pathogen free CD-1 mouse; assay type: organism-based; conditions: in vivo, po
# [9] = Toxicity in C57BL/6 mouse implanted with C57BL mouse LLC cells assessed as change in body weight at 100 mg/kg, ig administered as single dose (reference value: 90%); assay type: organism-based; conditions: in vivo, po
# [10] = system: Lewis lung carcinoma cell line; assay: Potentiation of topotecan-induced anticancer activity against C57BL mouse LLC cells implanted in C57BL/6 mouse assessed as tumor weight at 100 mg/kg, ig administered as single dose measured 17 days post transplantation (reference value: 2.9 +/- 0.28 g); assay type: functional
# [11] = Toxicity in C57BL/6 mouse implanted with C57BL mouse LLC cells assessed as spleen weight at 100 mg/kg, ig administered as single dose measured 17 days post-transplantation in presence of topotecan (reference value: 252 +/- 12 mg); assay type: organism-based; conditions: in vivo, po, 408 h
# [12] = Toxicity in C57BL/6 mouse implanted with C57BL mouse LLC cells assessed as spleen weight at 100 mg/kg, ig administered as single dose measured 17 days post-transplantation (reference value: 252 +/- 12 mg); assay type: organism-based; conditions: in vivo, po, 408 h
# [13] = Toxicity in C57BL/6 mouse implanted with C57BL mouse LLC cells assessed as change in body weight at 100 mg/kg, ig administered as single dose in presence of topotecan (reference value: 90%); assay type: organism-based; conditions: in vivo, po
# [14] = Cytotoxicity against human MCF7 cells after 3 days by [3H]-thymidine incorporation assay; assay type: cell-based
# [15] = Toxicity in C57BL/6 mouse implanted with C57BL mouse LLC cells assessed as liver index at 100 mg/kg, ig administered as single dose measured 17 days post-transplantation (reference value: 5.8 +/- 0.38%); assay type: organism-based; conditions: in vivo, po, 408 h
# [16] = Toxicity in C57BL/6 mouse implanted with C57BL mouse LLC cells assessed as state and behavioral changes at 100 mg/kg, ig administered as single dose in presence of topotecan; assay type: organism-based; conditions: in vivo, po
# [17] = Toxicity in C57BL/6 mouse implanted with C57BL mouse LLC cells assessed as state and behavioral changes at 100 mg/kg, ig administered as single dose; assay type: organism-based; conditions: in vivo, po
# [18] = Toxicity in C57BL/6 mouse implanted with C57BL mouse LLC cells assessed as death at 100 mg/kg, ig; assay type: organism-based; conditions: in vivo, po
# [19] = Toxicity in C57BL/6 mouse implanted with C57BL mouse LLC cells assessed as death at 100 mg/kg, ig in presence of topotecan; assay type: organism-based; conditions: in vivo, po
# [20] = system: Lewis lung carcinoma cell line; assay: Cytotoxicity against C57BL mouse LLC cells implanted in C57BL/6 mouse assessed as effect on number of metastatic nodules in lung at 100 mg/kg, ig administered as single dose measured 17 days post transplantation by microscopic analysis; assay type: organism-based; conditions: in vivo, po, 408 h
# [21] = molecular target: T1, Tyrosyl-DNA phosphodiesterase 1; remark: listed apart in the source
# [22] = Oral bioavailability in rabbit at 20 mg/kg by HPLC analysis; assay type: ADME, organism-based, Oryctolagus cuniculus; conditions: in vivo
# [23] = Toxicity in C57BL/6 mouse implanted with C57BL mouse LLC cells assessed as change in body weight at 1.5 mg/kg, ip administered on day 4, 5, 7 and 9 post-transplantation (reference value: 90%); assay type: organism-based; conditions: in vivo
# [24] = Toxicity in C57BL/6 mouse implanted with C57BL mouse LLC cells assessed as state and behavioral changes at 1.5 mg/kg, ip administered on day 4, 5, 7 and 9 post-transplantation; assay type: organism-based; conditions: in vivo
# [25] = Toxicity in C57BL/6 mouse implanted with C57BL mouse LLC cells assessed as spleen weight at 1.5 mg/kg, ip administered on day 4, 5, 7 and 9 post-transplantation measured 17 days post-transplantation (reference value: 252 +/- 12 mg); assay type: organism-based; conditions: in vivo, 408 h
# [26] = Toxicity in C57BL/6 mouse implanted with C57BL mouse LLC cells assessed as liver index at 1.5 mg/kg, ip administered on day 4, 5, 7 and 9 post-transplantation measured 17 days post-transplantation (reference value: 5.8 +/- 0.38%); assay type: organism-based; conditions: in vivo, 408 h
# [27] = Toxicity in C57BL/6 mouse implanted with C57BL mouse LLC cells assessed as death at 1.5 mg/kg, ip administered on day 4, 5, 7 and 9 post-transplantation; assay type: organism-based; conditions: in vivo
# T1 sequence (Q9NUW8 whole entry, the tested form may be a part): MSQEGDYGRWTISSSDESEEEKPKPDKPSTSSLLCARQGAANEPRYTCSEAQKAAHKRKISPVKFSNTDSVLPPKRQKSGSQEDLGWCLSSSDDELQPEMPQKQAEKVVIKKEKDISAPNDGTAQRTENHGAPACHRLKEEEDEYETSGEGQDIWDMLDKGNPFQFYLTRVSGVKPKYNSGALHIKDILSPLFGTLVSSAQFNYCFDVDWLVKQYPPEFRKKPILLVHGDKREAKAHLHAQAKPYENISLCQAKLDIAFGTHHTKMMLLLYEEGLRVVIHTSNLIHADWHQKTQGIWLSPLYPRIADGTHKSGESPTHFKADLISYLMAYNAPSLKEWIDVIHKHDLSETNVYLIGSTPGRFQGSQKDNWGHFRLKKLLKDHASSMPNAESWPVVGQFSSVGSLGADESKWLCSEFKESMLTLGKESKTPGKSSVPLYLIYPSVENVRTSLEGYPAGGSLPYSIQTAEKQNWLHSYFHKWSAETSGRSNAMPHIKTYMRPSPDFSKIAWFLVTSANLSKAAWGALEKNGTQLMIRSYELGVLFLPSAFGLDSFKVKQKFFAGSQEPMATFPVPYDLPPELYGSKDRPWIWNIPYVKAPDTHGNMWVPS
SMILES,Kd [2],Stability [3],IC50 [4],other results
Cc1ccc(C)n1-c1ccc(Cl)c(C(=O)O)c1,–,–,–,IC50 [1]: 110 nM
COc1cc(/C=N/Nc2nc(-c3c(O)c(C)c(O)c4c3OC3=CC(O)=C(C(C)=O)C(=O)[C@@]34C)cs2)ccc1O,44600 nM,Stable,192 nM,–
CC(=O)C1=C(O)C=C2Oc3c(-c4csc(N/N=C/c5ccc(Br)cc5)n4)c(O)c(C)c(O)c3[C@@]2(C)C1=O,7020 nM,Stable,–,Activity [5]: 6.5%; CC50 at 72 h [6]: 1670 nM; Activity [7]: 3.3 g; LD50 [8]: > 5000 mg/kg; Activity [9]: 88.2%; Activity [10]: 1.4 g; Activity [11]: 326 mg; Activity [12]: 281 mg; Activity [13]: 89.7%; CC50 at 72 h [14]: 1690 nM; Activity [15]: 6%; Activity [16]: Non-Toxic; Activity [17]: Non-Toxic; Activity [18]: Non-Toxic; Activity [19]: Non-Toxic; Activity [20]: Non-Toxic
CC(=O)C1=C(O)C=C2Oc3c(-c4csc(N/N=C/c5ccc([N+](=O)[O-])cc5)n4)c(O)c(C)c(O)c3[C@@]2(C)C1=O,10700 nM,Stable,35 nM,–
CC(C)=CCCC(C)CCNC1C2CC3CC(C2)CC1C3 (stereo not given),–,–,3500 nM,–
COc1cc(/C=C2\SC(=S)N(c3ccc([N+](=O)[O-])cc3)C2=O)cc(Br)c1O,–,–,–,IC50 [21]: 1080 nM
CC(=O)c1c([O-])c(C)c([O-])c2c1OC1=CC(=O)C(C(C)=O)C(=O)[C@@]12C.[Na+].[Na+] (stereo not given in full),–,–,–,bioavailability [22]: 78%
CC(=O)C1=C(O)C=C2Oc3c(C(=O)CSC#N)c(O)c(C)c(O)c3[C@@]2(C)C1=O,–,–,–,IC50 [1]: 1010 nM
CC(=O)C1=C(O)C=C2Oc3c(C(C)=O)c(O)c(C)c(O)c3[C@@]2(C)C1=O [(+)-USNIC ACID],–,–,> 50000 nM,–
CC[C@@]1(O)C(=O)OCc2c1cc1n(c2=O)Cc2cc3c(CN(C)C)c(O)ccc3nc2-1 [TOPOTECAN],–,–,–,Activity [23]: 88.1%; Activity [24]: Non-Toxic; Activity [25]: 260 mg; Activity [26]: 5.8%; Activity [27]: Non-Toxic

# Continued, in another order:
Kd [2],Stability [3],IC50 [4],SMILES,other results
9460 nM,Stable,68 nM,CC(=O)C1=C(O)C=C2Oc3c(-c4csc(N/N=C/c5ccc(Cl)cc5)n4)c(O)c(C)c(O)c3[C@@]2(C)C1=O,–
–,–,1210 nM,CC(=O)C1=C(O)C=C2Oc3c(-c4csc(-c5cccnc5)n4)c(O)c(C)c(O)c3[C@@]2(C)C1=O,–
8650 nM,Stable,158 nM,COc1ccc(/C=N/Nc2nc(-c3c(O)c(C)c(O)c4c3OC3=CC(O)=C(C(C)=O)C(=O)[C@@]34C)cs2)cc1,–
–,–,1120 nM,CC(=O)C1=C(O)C=C2Oc3c(-c4csc(-c5ccccc5)n4)c(O)c(C)c(O)c3[C@@]2(C)C1=O,–
–,–,610 nM,CC(=O)C1=C(O)C=C2Oc3c(-c4csc(Nc5ccccc5)n4)c(O)c(C)c(O)c3[C@@]2(C)C1=O,–
–,–,5900 nM,CNc1nc(-c2c(O)c(C)c(O)c3c2OC2=CC(O)=C(C(C)=O)C(=O)[C@@]23C)cs1,–
35200 nM,Stable,150 nM,CC(=O)C1=C(O)C=C2Oc3c(-c4csc(N/N=C/c5ccc(F)cc5)n4)c(O)c(C)c(O)c3[C@@]2(C)C1=O,–
31100 nM,Stable,457 nM,CC(=O)C1=C(O)C=C2Oc3c(-c4csc(N/N=C/c5ccc(O)cc5)n4)c(O)c(C)c(O)c3[C@@]2(C)C1=O,–
7140 nM,Stable,172 nM,CC(=O)C1=C(O)C=C2Oc3c(-c4csc(N/N=C/c5ccccc5)n4)c(O)c(C)c(O)c3[C@@]2(C)C1=O,–
–,–,1250 nM,C=CCNc1nc(-c2c(O)c(C)c(O)c3c2OC2=CC(O)=C(C(C)=O)C(=O)[C@@]23C)cs1,–
–,–,4100 nM,CC(=O)C1=C(O)C=C2Oc3c(-c4csc(C)n4)c(O)c(C)c(O)c3[C@@]2(C)C1=O,–
6200 nM,Stable,86 nM,CC(=O)C1=C(O)C=C2Oc3c(-c4csc(N/N=C/c5cccc([N+](=O)[O-])c5)n4)c(O)c(C)c(O)c3[C@@]2(C)C1=O,–
–,–,3800 nM,CC(=O)C1=C(O)C=C2Oc3c(-c4csc(N)n4)c(O)c(C)c(O)c3[C@@]2(C)C1=O,–
